# Reference: BindingDB's records for doi:10.1021/acs.jmedchem.1c00511 (2021)
# Target: Vitamin K-dependent protein C (Homo sapiens) (UniProt P04070)
# Assay: Inhibition of human APC using pyroGlu-Pro-Arg-p-nitroaniline-HCl as substrate measured after 5 mins by plate reader analysis
# Vitamin K-dependent protein C (Homo sapiens), sequence (P04070 whole entry, looked up): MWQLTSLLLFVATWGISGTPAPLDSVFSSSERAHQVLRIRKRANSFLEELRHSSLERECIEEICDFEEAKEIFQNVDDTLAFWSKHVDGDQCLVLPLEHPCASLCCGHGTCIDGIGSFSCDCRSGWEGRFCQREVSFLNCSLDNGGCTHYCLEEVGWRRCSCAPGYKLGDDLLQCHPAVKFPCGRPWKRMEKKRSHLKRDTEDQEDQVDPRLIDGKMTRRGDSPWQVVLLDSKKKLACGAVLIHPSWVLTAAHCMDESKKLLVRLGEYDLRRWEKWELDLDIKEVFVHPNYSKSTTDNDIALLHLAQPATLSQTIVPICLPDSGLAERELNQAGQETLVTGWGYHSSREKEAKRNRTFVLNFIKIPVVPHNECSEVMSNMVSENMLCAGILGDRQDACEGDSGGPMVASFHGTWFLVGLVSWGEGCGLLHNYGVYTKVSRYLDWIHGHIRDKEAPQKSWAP
smiles,measurement,value
"N#Cc1cccc(C(NCC2CC2)c2ccc(F)c(NC(=O)c3cc(C(F)(F)F)nn3-c3cccc(CN)c3)c2)c1 (single isomer, unassigned; (+)) [(+)-1-(3-(aminomethyl)phenyl)-N-(5-((3-cyanophenyl)(cyclopropyl-methylamino)methyl)-2-fluorophenyl)-3-(trifluoromethyl)-1H-pyrazole-5-carboxamide]",IC50,> 30 µM
